Measurements taken from US7288567B2, “Inhibitors of histone deacetylase” (Methylgene Inc., priority 2000, dated 2007).

How the values were obtained:
[1] = tested on: histone deacetylase enzyme in nuclear extracts from H446 cells (pooled HDACs); experiment: Histone deacetylase inhibition, H446 nuclear extracts (pooled HDACs); type: biochemical, human; details: for IC50: H446 nuclear extract, [3H]-acetylated histone substrate; for pooled HDACs percent inhibition: percent inhibition at 20 μM (footnote)
Procedure: HDAC inhibitors were screened against histone deacetylase enzyme in nuclear extracts prepared from the human small cell lung cancer cell line H446 (ATTC HTB-171) and against a cloned recombinant human HDAC-1 enzyme expressed and purified from a Baculovirus insect cell expression system.
(§1) For deacetylase assays, 20,000 cpm of the [^3H]-metabolically labeled acetylated histone substrate (M. Yoshida et al., J. Biol. Chem. 265(28): 17174-17179 (1990)) was incubated with 30 μg of H446 nuclear extract or an equivalent amount of the cloned recombinant hHDAC-1 for 10 minutes at 37° C. The reaction was stopped by adding acetic acid (0.04 M, final concentration) and HCl (250 mM, final concentration). The mixture was extracted with ethyl acetate and the released [^3H]-acetic acid was quantified by scintillation counting. For inhibition studies, the enzyme was preincubated with compounds at 4° C. for 30 minutes prior to initiation of the enzymatic assay. IC50 values for HDAC enzyme inhibitors were determined by performing dose response curves with individual compounds and determining the concentration of inhibitor producing fifty percent of the maximal inhibition.

[2] = target: T1, recombinant human HDAC-1 enzyme (rHDAC-1) (Homo sapiens, UniProt Q13547); experiment: Histone deacetylase inhibition, recombinant human HDAC-1; type: biochemical; details: cloned recombinant human HDAC-1, Baculovirus insect cell expression; read-out: rHDAC-1 IC50
T1 construct: made in house; host or cells: Baculovirus insect cell expression system
Procedure: as §1, with “The” for “For deacetylase assays, 20,000 cpm of the [^3H]-metabolically labeled acetylated histone substrate (M. Yoshida et al., J. Biol. Chem. 265(28): 17174-17179 (1990)) was incubated with 30 μg of H446 nuclear extract or an equivalent amount of the cloned recombinant hHDAC-1 for 10 minutes at 37° C. The”

T1 sequence (Q13547 whole entry): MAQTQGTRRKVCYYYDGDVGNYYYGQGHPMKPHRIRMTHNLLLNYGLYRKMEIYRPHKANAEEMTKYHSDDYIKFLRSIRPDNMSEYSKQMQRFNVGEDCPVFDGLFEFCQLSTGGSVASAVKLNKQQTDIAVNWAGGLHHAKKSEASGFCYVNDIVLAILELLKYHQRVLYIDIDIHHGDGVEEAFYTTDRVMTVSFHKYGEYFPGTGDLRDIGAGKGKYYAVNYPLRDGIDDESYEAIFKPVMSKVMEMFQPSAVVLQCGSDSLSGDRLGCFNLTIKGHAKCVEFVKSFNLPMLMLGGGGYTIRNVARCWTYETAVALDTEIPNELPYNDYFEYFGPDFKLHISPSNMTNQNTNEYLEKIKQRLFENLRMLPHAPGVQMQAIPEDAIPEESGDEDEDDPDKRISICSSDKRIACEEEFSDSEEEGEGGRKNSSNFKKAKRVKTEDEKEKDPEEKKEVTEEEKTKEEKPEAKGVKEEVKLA

SMILES | IC50 [1] [nM] | IC50 [2] [nM] | pooled HDACs percent inhibition [1] [%] | pooled HDACs percent inhibition @ 1 μM [1] [%@ 1 μM]
COC(C/C=C/C=C/C(=O)NO)c1ccc(N(C)C)cc1 (centres unmarked) [Compound 17, N-Hydroxy7-methoxy-7-[4-(N,N-dimethylamino)phenyl]-2,4-heptadienamide] | 4000 | 250 | – | –
COC(C/C=C/C=C/C(=O)Nc1ccccc1N)c1ccccc1 (centres unmarked) [Compound 19, N-(2-Aminophenyl)-7-methoxy-7-phenyl-2,4-heptadienamide] | > 100000 | < 20000 | – | –
COc1ccc(C(OC)C(C)(C)/C=C/C=C/C(=O)NO)cc1 (centres unmarked) [Compound 26, N-Hydroxy-6,6-dimethyl-7-methoxy-7-(4-methoxyphenyl)-2,4-heptadienamide] | 5000 | 1000 | – | –
COc1ccc(C(OC)C(C)(C)CCCCC(=O)NO)cc1 (centres unmarked) [Compound 28, N-Hydroxy-6,6-dimethyl-7-methoxy-7-(4-methoxyphenyl)heptanamide] | 4000 | 100 | – | –
O=C(CCCCCNS(=O)(=O)c1ccccc1)NO [Compound 47, N-Hydroxy-6-(benzenesulfonylamino)hexanamide] | 4500 | 500 | – | –
O=C(CCCCCCC(=NO)c1ccccc1)NO [Compound 51a, N-Hydroxy-8-oximino-8-phenyloctanamide] | 350 | 100 | – | –
O=C(CCCCCCC(=NO)c1ccco1)NO [Compound 51i, N-Hydroxy-8-oximino-8-(2-furanyl)octanamide] | 900 | 100 | – | –
O=C(CCCCCCC(=O)c1ccc(C(F)(F)F)cc1)NO [Compound 52c, N-hydroxy-7-(4-trifluoromethylbenzoyl)heptanamide] | 550 | 60 | – | –
O=C(CCCCCCC(=O)c1cccc2ccccc12)NO [Compound 52f, N-hydroxy-7-(1-naphthoyl)heptanamide] | 550 | 10 | – | –
O=C(CCCCCCC(=O)c1ccco1)NO [Compound 52i, N-hydroxy-7-(2-furanoyl)-heptanamide] | 3000 | 100 | – | –
O=C(CCCCCCC(=O)c1ccoc1)NO [Compound 52j, N-hydroxy-7-(3-furanoyl)heptanamide] | 3000 | 450 | – | –
O=C(CCCCCCC(=O)c1cc2ccccc2o1)NO [Compound 52l, N-hydroxy-7-(2-benzofuran)carbonylheptanamide] | 300 | 30 | – | –
O=C(CCCCCCC(=O)c1cc2ccccc2s1)NO [Compound 52m, N-hydroxy-7-(2-benzothiophene)carbonylheptanamide] | 100 | 10 | – | –
COc1ccc(C(=O)C(C)(C)CCCCC(=O)NO)cc1 [Compound 58, N-Hydroxy-6-methyl-6-(4-methoxybenzoyl)-heptanamide] | 3000 | 250 | – | –
Nc1ccccc1NC(=O)CCCCCCC(=O)c1ccc2ccccc2c1 [Compound 63, N-(2-Aminophenyl)-7-(2-naphthoyl)heptanamide] | > 20000 | 2200 | – | –
O=C(CCCCCCC(=O)c1ccc2ccccc2c1)Nc1ccccc1O [Compound 66, N-(2-Hydroxyphenyl)-7-(2-naphthoyl)heptanamide] | – | 2300 | 0 | –

SMILES | IC50 [1] [nM] | IC50 [2] [nM] | pooled HDACs percent inhibition [1] [%] | pooled HDACs percent inhibition @ 1 μM [1] [%@ 1 μM]
O=C(CCCCCCC(=O)c1ccc(-c2ccccc2)cc1)Nc1ccccc1O [Compound 74, N-(2-Hydroxyphenyl)-7-[(4-biphenyl)carbonyl]heptanamide] | – | 7800 | 0 | –
Nc1ccccc1CNC(=O)CCCCCCC(=O)c1ccc(-c2ccccc2)cc1 [Compound 75, N-(2-Aminobenzyl)-7-[(4-biphenyl)carbonyl]heptanamide] | – | 8400 | 0 | –
COc1ccc(NC(=O)CCCCCCC(=O)c2ccc(-c3ccccc3)cc2)c(N)c1 [Compound 81, N-(4-(3-Amino)anisole)-7-[(4-biphenyl)carbonyl]heptanamide] | – | 25000 | 27 | –
Nc1ccccc1NC(=O)NCCCCCCC(=O)c1ccccc1 [Compound 89, N-(2-Aminophenyl)-N′-[6-(benzoyl)hexyl]urea] | – | 16300 | 0 | –
Nc1ccccc1NC(=O)NCCCCCC(=O)c1ccc(-c2ccccc2)cc1 [Compound 92, N-(2-Aminophenyl)-N′-[5-((4biphenyl)carbonyl)pentyl]urea] | – | 15900 | 0 | –
O=C(NCCCCCC(=O)c1ccc(-c2ccccc2)cc1)Nc1ccccc1O [Compound 93, N-(2-Hydroxyphenyl)-N′-[5-((4-biphenyl)carbonyl)pentyl]urea] | – | 6400 | 0 | –
COc1ccc(/C(CCCCCCC(=O)NO)=N/O)cc1 [Compound 96, N-Hydroxy-8-(E)-oximino-8-(4-methoxyphenyl)octanamide] | 100 | 35 | – | –
O=C(CCCCCC/C(=N\O)c1cc2ccccc2s1)NO [Compound 99, N-Hydroxy-8-(Z)-oximino-8-(2-benzo[b]thiophene)octanamide] | 35 | 8 | – | –
Cn1c(C(=O)CCCCCCC(=O)NO)cc2ccccc21 [Compound 103, N-Hydroxy-7-[2-((N-methyl)indolyl)carbonyl]heptanamide] | 100 | 50 | – | –
O=C(CCCCCCC(=O)c1ccc(Oc2ccccc2)cc1)NO [Compound 104, N-Hydroxy-7-(4-phenoxybenzoyl)heptanamide] | – | 160 | – | 61
O=C(CCCCCC(=O)c1cc2ccccc2[nH]1)NO [Compound 112, N-Hydroxy-6-[(2-indolyl)carbonyl]hexanamide] | 250 | 39 | – | –
O=C(CCCCCC(=O)c1cc2ccccc2s1)NO [Compound 113, N-Hydroxy-6-[(2-benzo[b]thiophene)carbonyl]hexanamide] | – | 130 | – | 33
Nc1ccccc1NC(=O)CCCCCCC(=O)c1ccc(Br)cc1 [Compound 114, N-(2-Aminophenyl)-7-(4-bromobenzoyl)heptanamide] | > 20000 | 6300 | – | –
Nc1ccccc1NC(=O)CCCCCCC(=O)c1ccc(-c2ccsc2)cc1 [Compound 117, N-(2-Aminophenyl)-7-[4-(3-thiophenyl)benzoyl]heptanamide] | – | 9000 | 0 | –
Nc1ccccc1NC(=O)CCCCCCC(=O)c1ccc(-c2cccnc2)cc1 [Compound 127, N-(2-Aminophenyl)-7-[4-(3-pyridyl)benzoyl]heptanamide] | – | 10300 | 0 | –
O=C(CCCCCCC(=O)c1cccnc1)NO [Compound 141a1, N-Hydroxy-7-[(3-pyridyl)carbonyl]heptanamide] | – | 60 | – | 22

Second part, led by results:

IC50 [1] [nM] | IC50 [2] [nM] | SMILES | pooled HDACs percent inhibition [1] [%] | pooled HDACs percent inhibition @ 1 μM [1] [%@ 1 μM]
– | 1000 | COc1ccc(C(=O)CCCCCCC(=O)Nc2ccccc2N)cc1 [Compound 53b, N-(2-Aminophenyl)-7-(p-anisoyl)heptanamide] | 0 | –
– | 2000 | Nc1ccccc1NC(=O)CCCCCCC(=O)c1cccc2ccccc12 [Compound 53f, N-(2-Aminophenyl)-7-(1-naphthoyl)heptanamide] | 3 | –
– | 10 | COc1ccc2cc(C(=O)CCCCCCC(=O)NO)ccc2c1 [Compound 105a, N-Hydroxy-7-[2-(6-methoxy)naphthoyl]heptanamide] | – | 83
– | 20 | CSc1ncccc1C(=O)CCCCCCC(=O)NO [Compound 105b] | – | 40
– | 4 | O=C(CCCCCCC(=O)c1ccc(Nc2ccccc2)cc1)NO [Compound 138a, N-Hydroxy-7-[4-(N-phenyl)benzoyl]heptanamide] | – | 83
49 | 8 | CN(c1ccccc1)c1ccc(C(=O)CCCCCCC(=O)NO)cc1 [Compound 138b, N-Hydroxy-7-[4-(N-methyl-N-phenyl)benzoyl]heptanamide] | – | –
20 | 4 | O=C(CCCCCCC(=O)c1ccc(Nc2ccccn2)cc1)NO [Compound 138d, N-Hydroxy-7-[4-(N-2-aminopyridyl)benzoyl]heptanamide] | – | –
20 | 4 | O=C(CCCCCCC(=O)c1ccc(Nc2nccs2)cc1)NO [Compound 138e, N-Hydroxy-7-[4-(N-2-aminothiazolyl)benzoyl]heptanamide] | – | –
100 | 33 | O=C(CCCCCCC(=O)c1ccc(N2CCOCC2)cc1)NO [Compound 138i, N-Hydroxy-7-[4-(N-morpholinyl)benzoyl]heptanamide] | – | –
– | 35 | O=C(CCCCCCC(=O)c1cnc2ccccc2c1)NO [Compound 141b, N-Hydroxy-7-[(3-quinolinyl)carbonyl]heptanamide] | – | 71
50 | 100 | CC(=O)SCC(=O)CCCCCCC(=O)c1ccccc1 [Compound 159a, 1-Acetylthio-2,9-dioxo-9-phenyl-nonane] | – | –
